The record followed here is ChEMBL document CHEMBL4257081, “Inhibitors of the kynurenine pathway” (2016).

Holding throughout (format): functional
The test system of experiment [1] is Mus musculus. Briefly: Reduction in plasma kynurenine levels in Balb/C mouse implanted with mouse CT26 cells at 20 mg/kg, po bid for 4 days measured 2 hrs post last dose by LC/MS/MS analysis relative to control. Details: scale not given: the % may be the effect or the level left.
Experiment [2] has as its system Mus musculus. The experiment is described as follows: In vivo inhibition of IDO1 in po dosed LPS-induced C57BL/6 mouse assessed as reduction in plasma kynurenine levels measured after 2 to 48 hrs by LC/MS/MS analysis.
Experiment [3] deals with Mus musculus. Briefly: Reduction in kynurenine levels in tumor of Balb/C mouse implanted with mouse CT26 cells at 20 mg/kg, po bid for 4 days measured 2 hrs post last dose by LC/MS/MS analysis relative to control. The arrangement: scale not given: the % may be the effect or the level left.

Bounds are passed on as bounds.

As to `Nc1oc2cnccc2c1Nc1cccc(C(F)(F)F)c1`, the Activity with Mus musculus [1] is listed as above 50%; in the experiment on Mus musculus [3], “>=25 - 50%”. The “inhibition (INH)” value in the experiment with Mus musculus [2] is listed as above 50%.
